≈ marks a conversion by molar mass, not a printed value. Calls of active or inactive are those of the source. The calls are words filed in the database; no cut-off is given here.
Columns and labels:
Escherichia coli = test: Antibacterial activity against Escherichia coli ATCC 25835 after 24 hrs by twofold serial dilution method; type: functional; conditions: ATCC 25835, 24 h
Bacillus subtilis = test: Antibacterial activity against Bacillus subtilis ATCC 451 after 24 hrs by twofold serial dilution method; type: functional; conditions: ATCC 451, 24 h
Aspergillus niger [1] = test: Antifungal activity against Aspergillus niger ATCC 598 at 200 ug/mL after 72 to 96 hrs by twofold serial dilution method; type: functional, organism-based
Aspergillus flavus = test: Antifungal activity against Aspergillus flavus ATCC 485 after 72 to 96 hrs by twofold serial dilution method; type: functional
Klebsiella pneumoniae [2] = test: Antibacterial activity against Klebsiella pneumoniae ATCC 15490 after 24 hrs by twofold serial dilution method; type: functional; conditions: ATCC 15490, 24 h
[3] = test system: Salmonella enterica subsp. enterica; test: Antibacterial activity against Salmonella typhi ATCC 24915 after 24 hrs by twofold serial dilution method; type: functional, Salmonella enterica subsp. enterica serovar Typhi; conditions: ATCC 24915, 24 h
Candida albicans [4] = test: Antifungal activity against Candida albicans ATCC 3122 by twofold serial dilution method; type: functional
Rhizopus = test: Antifungal activity against Rhizopus sp. ATCC 2915 after 72 to 96 hrs by twofold serial dilution method; type: functional
Cryptococcus neoformans = test: Antifungal activity against Cryptococcus neoformans ATCC 3312 after 72 to 96 hrs by twofold serial dilution method; type: functional
Staphylococcus aureus = test: Antibacterial activity against Staphylococcus aureus ATCC 25825 after 24 hrs by twofold serial dilution method; type: functional; conditions: ATCC 25825, 24 h
Aspergillus niger [5] = test: Antifungal activity against Aspergillus niger ATCC 598 after 72 to 96 hrs by twofold serial dilution method; type: functional
Klebsiella pneumoniae [6] = test: Antibacterial activity against Klebsiella pneumoniae ATCC 15490 at 200 ug/mL after 24 hrs by twofold serial dilution method; type: functional, organism-based
Candida albicans [7] = test: Antifungal activity against Candida albicans ATCC 3122 at 200 ug/mL by twofold serial dilution method; type: functional, organism-based

Compound | MIC (Escherichia coli) | MIC (Bacillus subtilis) | MIC (Aspergillus niger [1]) | MIC (Aspergillus flavus) | MIC (Klebsiella pneumoniae [2]) | MIC [3] | MIC (Candida albicans [4]) | MIC (Rhizopus) | MIC (Cryptococcus neoformans) | MIC (Staphylococcus aureus) | MIC (Aspergillus niger [5]) | MIC (Klebsiella pneumoniae [6]) | MIC (Candida albicans [7])
Cc1ccc(C2NC(c3ccc(C)cc3)C3CCCC2C3=N/N=C2/NC(=O)CS2)cc1 (stereo not given) | 50 µg/mL (≈ 116 µM) | 25 µg/mL (≈ 57.8 µM) | inactive | 25 µg/mL (≈ 57.8 µM) | 25 µg/mL (≈ 57.8 µM) | 100 µg/mL (≈ 231 µM) | 100 µg/mL (≈ 231 µM) | 50 µg/mL (≈ 116 µM) | 100 µg/mL (≈ 231 µM) | 25 µg/mL (≈ 57.8 µM) | – | – | –
CN[C@@H]1[C@H](O[C@H]2[C@H](O[C@H]3[C@H](O)[C@@H](O)[C@H](N=C(N)N)[C@@H](O)[C@@H]3N=C(N)N)O[C@@H](C)[C@]2(O)C=O)O[C@@H](CO)[C@H](O)[C@H]1O [STREPTOMYCIN] | 12.5 µg/mL (≈ 21.5 µM) | 12.5 µg/mL (≈ 21.5 µM) | – | – | 25 µg/mL (≈ 43 µM) | 50 µg/mL (≈ 86 µM) | – | – | – | 50 µg/mL (≈ 86 µM) | – | – | –
NC(=S)NN=C1C2CCCC1C(c1ccc(Cl)cc1)NC2c1ccc(Cl)cc1 (stereo not given) | 6.25 µg/mL (≈ 14.4 µM) | 100 µg/mL (≈ 231 µM) | – | 6.25 µg/mL (≈ 14.4 µM) | 200 µg/mL (≈ 461 µM) | 100 µg/mL (≈ 231 µM) | 25 µg/mL (≈ 57.7 µM) | 50 µg/mL (≈ 115 µM) | 25 µg/mL (≈ 57.7 µM) | 25 µg/mL (≈ 57.7 µM) | 100 µg/mL (≈ 231 µM) | – | –
NC(=S)NN=C1C2CCCC1C(c1cccc(F)c1)NC2c1cccc(F)c1 (stereo not given) | 100 µg/mL (≈ 250 µM) | 25 µg/mL (≈ 62.4 µM) | – | 50 µg/mL (≈ 125 µM) | 25 µg/mL (≈ 62.4 µM) | 50 µg/mL (≈ 125 µM) | 25 µg/mL (≈ 62.4 µM) | 100 µg/mL (≈ 250 µM) | 25 µg/mL (≈ 62.4 µM) | 6.25 µg/mL (≈ 15.6 µM) | 25 µg/mL (≈ 62.4 µM) | – | –
O=C1CS/C(=N\N=C2C3CCCC2C(c2cccc(F)c2)NC3c2cccc(F)c2)N1 (stereo not given) | 100 µg/mL (≈ 227 µM) | 50 µg/mL (≈ 114 µM) | – | 50 µg/mL (≈ 114 µM) | – | 6.25 µg/mL (≈ 14.2 µM) | 6.25 µg/mL (≈ 14.2 µM) | 6.25 µg/mL (≈ 14.2 µM) | 12.5 µg/mL (≈ 28.4 µM) | 100 µg/mL (≈ 227 µM) | 100 µg/mL (≈ 227 µM) | inactive | –
C[C@@H]1[C@H](O)[C@@H](C)/C=C/C=C/C=C/C=C/C=C/C=C/C=C/[C@H](O[C@@H]2O[C@H](C)[C@@H](O)[C@H](N)[C@@H]2O)C[C@@H]2O[C@](O)(C[C@@H](O)C[C@@H](O)[C@H](O)CC[C@@H](O)C[C@@H](O)CC(=O)O[C@H]1C)C[C@H](O)[C@H]2C(=O)O [AMPHOTERICIN B] | – | – | – | 50 µg/mL (≈ 54.1 µM) | – | – | 25 µg/mL (≈ 27.1 µM) | 25 µg/mL (≈ 27.1 µM) | 25 µg/mL (≈ 27.1 µM) | – | 50 µg/mL (≈ 54.1 µM) | – | –
COc1ccc(C2NC(c3ccc(OC)cc3)C3CCCC2C3=NNC(N)=S)cc1 (stereo not given) | 50 µg/mL (≈ 118 µM) | 50 µg/mL (≈ 118 µM) | – | 100 µg/mL (≈ 236 µM) | 100 µg/mL (≈ 236 µM) | 200 µg/mL (≈ 471 µM) | – | 200 µg/mL (≈ 471 µM) | 50 µg/mL (≈ 118 µM) | 25 µg/mL (≈ 58.9 µM) | 200 µg/mL (≈ 471 µM) | – | inactive
O=C1CS/C(=N\N=C2C3CCCC2C(c2ccccc2)NC3c2ccccc2)N1 (stereo not given) | 12.5 µg/mL (≈ 30.9 µM) | 25 µg/mL (≈ 61.8 µM) | inactive | 200 µg/mL (≈ 494 µM) | 50 µg/mL (≈ 124 µM) | 100 µg/mL (≈ 247 µM) | 50 µg/mL (≈ 124 µM) | 200 µg/mL (≈ 494 µM) | 50 µg/mL (≈ 124 µM) | 50 µg/mL (≈ 124 µM) | – | – | –
O=C1CS/C(=N/N=C2C3CCCC2C(c2ccccc2Cl)NC3c2ccccc2Cl)N1 (stereo not given) | 25 µg/mL (≈ 52.8 µM) | 100 µg/mL (≈ 211 µM) | – | 50 µg/mL (≈ 106 µM) | – | 50 µg/mL (≈ 106 µM) | 50 µg/mL (≈ 106 µM) | 6.25 µg/mL (≈ 13.2 µM) | 100 µg/mL (≈ 211 µM) | 100 µg/mL (≈ 211 µM) | 25 µg/mL (≈ 52.8 µM) | inactive | –

— ChEMBL document CHEMBL1153594, “Design, synthesis and biological evaluation of novel 2-[(2,4-diaryl-3-azabicyclo[3.3.1]nonan-9-ylidene)hydrazono]-1,3-thiazolidin-4-ones as a new class of antimicrobial agents” (2009)
